Experimental data taken from patent US20220280541A1, “METHOD FOR IDENTIFYING CARBOHYDRATE DRUG-SENSITIVE PATIENT IN PATIENTS HAVING ALZHEIMER'S DISEASE” (SHANGHAI GREEN VALLEY PHARMACEUTICAL CO., LTD., priority 2019, published 2022).
Entries after “also recorded” stand apart in the source; their conditions may differ.

What was measured:
Th1 cells [1] = assay: Intraperitoneal injection of phenylalanine and isoleucine, blood Th1 cells; assay type: in vivo, mouse; conditions: WT (C57) mice, intraperitoneal injection 50 mg/kg for 4 days
Procedure: Animals. Tg mice and co-housed WT mice (corresponding WT mice generated by mating Tg mice and C57 mice) were housed in the same cage after birth. WT mice (C57) were housed in separate cages to avoid cross-transfer of microbiota. All mice were kept in a 23° C. room with a 12-hour (h) light-dark cycle. Mice were randomly assigned to different groups before treatment. For time course analysis of Tg mice, male and female Tg mice were sacrificed at 2, 3, 5, 7 and 9 months of age. The mouse brain was collected and stained for immune cell analysis and cytokine analysis. Before the mice were sacrificed, feces were collected for gut microbiota analysis. For OM1 treatment, at the age of 6.5 months, based on 450 mg b.i.d. (twice a day) in the phase III trial, Tg mice were treated with 100 mg/kg OM1 by oral administration once a day for one month. Behavioral tests were performed to monitor cognitive activity after the last treatment. […] All mouse movements that occur in PhenoTyper (HomeCage) are recorded by a computerized tracking system, which calculates the time and number of entrances required to reach 80% of the performance standard (Noldus, Ethovision). […]
Flow cytometry sample preparation and analysis. […] All samples were counted and adjusted to a density of 2-3×10^6/100 μL, labeled with a Live/Dead kit for 30 min, and then centrifuged at 500×g for 3 min at 4° C. […]

naive CD4^+ T cells = assay: In vitro differentiation and proliferation induced by phenylalanine and isoleucine; assay type: cell-based, mouse; conditions: amino acid added directly to naive CD4^+ T cell culture
Procedure: In Vitro differentiation and proliferation induced by phenylalanine and isoleucine. Naive CD4^+ T cells were separated from the splenocytes of 8-month-old C57BL/6 female mice using the Naive CD4^+ T cell Isolation Kit (Stem Cell, #19765), and the cells were stained with CellTrace (Thermo Fisher, #C34557). A total of 1×10^5 cells/well in 0.2 mL of RPMI-1640 medium were plated in 96-well plates, and the culture medium was supplemented with cytokines or blocking antibodies. Th0: 10 ng/mL mIL-2; Th1:10 ng/mL mIL-2, 5000 ng/mL 11B11. Phenylalanine (final concentration, 2 mmol/L), isoleucine (final concentration, 2 mmol/L) and OM1 (final concentration, 100 μg/mL) were added into the indicated wells, respectively. After incubation at 37° C. in 5% CO2 for 5 days, cells were acquired on a BD Fortessa cytometer, and data were analyzed using FlowJo software.

LAT1 = LAT1 (Homo sapiens, UniProt Q01650); conditions: cited from earlier work
Sequence of LAT1 (Q01650 whole entry, species assumed): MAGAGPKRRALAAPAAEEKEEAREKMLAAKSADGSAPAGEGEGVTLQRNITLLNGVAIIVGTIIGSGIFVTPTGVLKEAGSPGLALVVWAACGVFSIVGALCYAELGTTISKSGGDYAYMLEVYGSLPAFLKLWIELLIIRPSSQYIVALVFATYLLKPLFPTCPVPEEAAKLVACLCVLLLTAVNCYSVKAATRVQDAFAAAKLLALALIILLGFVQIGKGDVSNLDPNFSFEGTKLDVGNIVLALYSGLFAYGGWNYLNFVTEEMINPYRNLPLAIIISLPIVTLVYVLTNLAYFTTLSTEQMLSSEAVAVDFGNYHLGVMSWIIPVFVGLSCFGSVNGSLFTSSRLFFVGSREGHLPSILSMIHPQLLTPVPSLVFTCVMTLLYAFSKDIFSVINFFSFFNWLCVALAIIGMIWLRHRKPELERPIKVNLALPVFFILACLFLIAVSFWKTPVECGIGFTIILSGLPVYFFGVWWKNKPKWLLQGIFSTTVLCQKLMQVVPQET
Sequence of LAT1 (P08195 102-630 partner, species assumed): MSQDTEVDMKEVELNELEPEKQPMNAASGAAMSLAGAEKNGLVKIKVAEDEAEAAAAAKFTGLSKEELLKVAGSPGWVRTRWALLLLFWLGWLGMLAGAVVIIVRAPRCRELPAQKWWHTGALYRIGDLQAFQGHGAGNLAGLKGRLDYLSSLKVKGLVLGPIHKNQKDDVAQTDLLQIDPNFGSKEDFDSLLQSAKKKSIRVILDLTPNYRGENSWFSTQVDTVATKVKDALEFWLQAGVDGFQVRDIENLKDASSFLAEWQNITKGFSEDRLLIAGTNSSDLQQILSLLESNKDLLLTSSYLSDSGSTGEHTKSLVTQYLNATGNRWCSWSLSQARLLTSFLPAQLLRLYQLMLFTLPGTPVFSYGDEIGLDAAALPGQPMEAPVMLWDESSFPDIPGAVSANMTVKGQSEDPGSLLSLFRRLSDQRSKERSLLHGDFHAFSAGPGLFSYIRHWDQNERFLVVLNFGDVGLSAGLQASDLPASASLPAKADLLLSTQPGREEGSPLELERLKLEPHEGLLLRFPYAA

Th1 cells [2] = assay: Flow cytometry of brain Th1 cells in 5XFAD (Tg) mice; assay type: in vivo, mouse; conditions: 6-month-old 5XFAD mice, 50 mg/kg intraperitoneal daily for one month, versus vehicle
Procedure: Animals. Tg mice and co-housed WT mice (corresponding WT mice generated by mating Tg mice and C57 mice) were housed in the same cage after birth. […] All mice were kept in a 23° C. room with a 12-hour (h) light-dark cycle. Mice were randomly assigned to different groups before treatment. For time course analysis of Tg mice, male and female Tg mice were sacrificed at 2, 3, 5, 7 and 9 months of age. The mouse brain was collected and stained for immune cell analysis and cytokine analysis. […] For OM1 treatment, at the age of 6.5 months, based on 450 mg b.i.d. (twice a day) in the phase III trial, Tg mice were treated with 100 mg/kg OM1 by oral administration once a day for one month. […] The brains and feces of the mice were then used for different analyses.
Flow cytometry sample preparation and analysis. Mice were anesthetized, blood samples were collected into EDTA-containing tubes, and red blood cells were removed using 1×red blood lysis buffer. Before tissue collection, the brains were perfused with ice-cold PBS to avoid sampling the circulating blood immune cells, and the brains were removed, chopped into pieces and dissected according to the introduction of the Adult Brain Dissociation Kit (Miltenyi, Cat No. 130-107-677) using the gentleMACS dissociator (Miltenyi Biotec). The brain homogenate was filtered through a 70-μm cell strainer and centrifuged at 300×g for 5 min at 4° C. The cell pellet was resuspended in cold PBS buffer and centrifuged again at 300×g for 5 min at 4° C. All samples were counted and adjusted to a density of 2-3×10^6/100 μL, labeled with a Live/Dead kit for 30 min, and then centrifuged at 500×g for 3 min at 4° C. The cells were resuspended in 100 μL PBS buffer, blocked with anti-CD16/32 (Biolegend, Cat No. 101320) for 10 min, and incubated with the antibody according to the manufacturers' protocols at 4° C. for 30 min. […]

SLC7A5 = target: T1, SLC7A5 (Mus musculus, UniProt Q9Z127); assay: Uptake of ^13C-labelled phenylalanine by naive CD4^+ T cells; assay type: cell-based; conditions: 0.5 h incubation
T1 construct: endogenous in cells; host or cells: naive CD4+ T cells from splenocytes of C57BL/6 mice (Th0 and IL-12-induced Th1)
T1 sequence (Q9Z127 whole entry): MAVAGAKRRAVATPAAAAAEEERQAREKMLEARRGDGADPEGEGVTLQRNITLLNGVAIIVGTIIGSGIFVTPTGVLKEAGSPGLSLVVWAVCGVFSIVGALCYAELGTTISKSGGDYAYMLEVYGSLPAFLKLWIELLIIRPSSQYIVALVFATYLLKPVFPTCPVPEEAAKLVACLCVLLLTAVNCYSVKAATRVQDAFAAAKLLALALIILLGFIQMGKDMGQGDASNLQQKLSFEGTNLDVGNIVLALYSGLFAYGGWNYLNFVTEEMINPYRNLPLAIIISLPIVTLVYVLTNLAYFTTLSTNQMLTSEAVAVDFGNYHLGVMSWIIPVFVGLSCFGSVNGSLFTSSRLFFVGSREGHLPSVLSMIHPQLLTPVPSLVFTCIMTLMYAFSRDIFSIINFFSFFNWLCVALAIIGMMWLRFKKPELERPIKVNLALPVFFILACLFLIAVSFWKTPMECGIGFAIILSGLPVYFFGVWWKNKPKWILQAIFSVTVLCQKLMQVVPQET
T1 sequence (P10852 whole entry partner): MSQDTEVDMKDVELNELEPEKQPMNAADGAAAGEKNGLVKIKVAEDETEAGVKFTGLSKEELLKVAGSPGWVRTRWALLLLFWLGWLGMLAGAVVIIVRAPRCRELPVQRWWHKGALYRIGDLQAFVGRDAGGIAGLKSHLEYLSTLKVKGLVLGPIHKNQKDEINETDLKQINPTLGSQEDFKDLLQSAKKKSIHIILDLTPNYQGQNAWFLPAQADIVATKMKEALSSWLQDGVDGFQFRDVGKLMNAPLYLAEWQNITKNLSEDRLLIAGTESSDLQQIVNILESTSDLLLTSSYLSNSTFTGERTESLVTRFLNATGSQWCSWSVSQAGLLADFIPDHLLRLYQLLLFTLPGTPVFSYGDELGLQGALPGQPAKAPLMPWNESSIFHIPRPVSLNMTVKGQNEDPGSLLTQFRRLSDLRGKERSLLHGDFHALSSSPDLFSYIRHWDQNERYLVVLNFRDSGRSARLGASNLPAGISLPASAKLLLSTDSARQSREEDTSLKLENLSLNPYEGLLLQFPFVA
Procedure: Uptake of phenylalanine. Naive CD4^+ T cells were separated from the splenocytes of 8-month-old C57BL/6 female mice using the Naive CD4^+ T cell Isolation Kit (Stem Cell, Cat No. 19765) and were induced to Th1 differentiation by 20 ng/mL IL-12. After 3 days, a total of 5×10^5 cells/well Th1 cells and Th0 cells in 0.5 mL of RPMI-1640 medium were plated into 48-well plates. ^13C-labelled phenylalanine and 5 mM amino transporter inhibitor BCH were added into indicated wells. After 0.5 h, cells were collected and washed twice with ice-cold D-PBS. 50 μL deionized water was added and cells were lysed through freezing and thawing twice at −80° C. The cell lysate was centrifuged at 12000×g for 10 min and ^13C-labelled phenylalanine in the supernatant was analyzed by Mass spectrometry.

uptake of ^13C-labelled phenylalanine by CD4^+ T cells (SLC7A5)	SMILES	Th1 cell count in the blood (Th1 cells [1])	Th0 cell differentiation into Th1 cells (naive CD4^+ T cells)	Th1 cell proliferation (naive CD4^+ T cells)	LAT1 inhibition, selectivity (LAT1)	proportion of pro-inflammatory Th1 cells in the mouse brain (Th1 cells [2]; 50 mg/kg)	proportion of pro-inflammatory Th1 cells in the mouse brain (Th1 cells [2]; listed as JPH 203, 50 mg/kg)
	N[C@@H](Cc1ccccc1)C(=O)O [phenylalanine]	increased significantly	increased	increased			
blocked	Nc1cc(COc2c(Cl)cc(C[C@H](N)C(=O)O)cc2Cl)c2oc(-c3ccccc3)nc2c1 [JPH203]				selectively inhibits LAT1	effectively inhibits; also recorded: significantly downregulated	significantly reduces
	CC[C@H](C)[C@H](N)C(=O)O [isoleucine]	increased significantly	increased	increased			
